How the values were obtained:
[1] = biological target: T1, E. coli DNA dependent RNA polymerase (Escherichia coli, UniProt P0A8T7+P0A8V2); assay: Inhibition of E. coli DNA dependent RNA polymerase; assay type: biochemical
T1 construct: purchased Sigma
Method: (§1) Polymerases, nucleic acid template nucleoside triphosphates, of which guanosine triphosphate is tritium-labelled, salt and buffer are mixed at 0° C. in a total volume of 125 μl (for herpes DNA polymerase, see F. below). The concentrations of the nucleoside triphosphates UTP (uridine triphosphate), CTP (cytidinetriphosphate), GTP (guanosinetriphosphate) and ATP (adenosinetriphosphate) were generall 400, 400, 400, and 2000 μM, respectively. The test compound is also added in various concentrations to the mixture obtained. A standard mixture without test compound is also prepared using the same amounts of the ingredients. The enzyme reaction, i.e. synthesis of nucleic acid, is started by incubating the mixture at 37° C. For influenza RNA polymerases the temperature is 33° C. The reaction is allowed to proceed for 60 minutes in the assay of influenza and Micrococcus polymerases. […] The incorporation of labelled monomer into trichloroacetic acid insoluble nucleic acid product was measured in the following way. […] After drying the discs are measured for radioactivity in a liquid scintillation counter. The difference in radioactivity between samples with and without added compound is used to calculate the inhibition of the polymerase activity. The inhibition is expressed as percentage inhibition using the radioactivity of the standard sample as basis. […]

[2] = biological target: Micrococcus luteus DNA dependent DNA polymerase (Micrococcus luteus, UniProt C5CBM1); assay: Inhibition of Micrococcus luteus DNA dependent DNA polymerase; assay type: biochemical
Method: as §1

influenza virus (WSN) = assay: Influenza virus (WSN) plaque assay on MDCK monolayers; assay type: cell-based, influenza (WSN Wilson Smith Neurotropic type A); conditions: unidentified influenza virus, read-out: Inhibition of plaque
herpes simplex type 1 = assay: Herpes simplex type 1 plaque reduction assay on GMK monolayers; assay type: cell-based; conditions: mean of three experiments
Method: The inhibition of influenza virus and herpes virus by phosphonoformic acid has been measured as plaque reaction according to the following procedures.
H. Inhibition by phosphonoformic acid of herpes simplex type 1 plaque
The plaque reduction assay for herpes simplex type 1 was performed on GMK (Green Monkey Kidney) cells as described by Ejereito et el., J. Gen. Virol. 2 (1968) 357. Monolayers on 5 cm petri dishes were used and after virus adsorption phosphonoformic acid was added in the medium.

visna virus = assay: Visna virus growth in sheep choroid plexus (SCP) cells: virus titre and morphological changes; assay type: cell-based; conditions: for Morphological changes Day 3 / Morphological changes Day 5 / Morphological changes Day 7: Visna virus infected cells
Method: Visna virus is a retrovirus that can multiply in sheep choroid (SCP) cells. The infection can be followed by titrating medium from infected cells to determine the formation of virus particles and by observing morphological changes as syncytial formation and cell degeneration.
Plates (5 cm) with primary SCP cells in medium 199 with 10% sheep serum were grown to confluence and then infected with 1×10^6 TCID50 (tissue culture infectious doses) of visna virus. One set of plates were left untreated, one set received different concentrations of phosphonoformic acid (PFA) at pH 7.2. Another set received phosphonoacetic acid (PAA) at pH 7.2. Uninfected plates were used as controls with and without PFA and PAA. The virus titre was determined 5 days after infection by the end-point titration method. The plates were checked daily in a light microscope to observe morphological changes.

[3] = test system: Ehrlich ascites tumors (Friend virus); assay: Survival of NMRI mice bearing Ehrlich ascites tumors; assay type: in vivo; conditions: 100 mg/kg per day ip, 2% solution pH 7.2; versus 0.95% NaCl control; FIG. 2
Method: (§2) The inhibition of reverse transcriptase by phosphonoformic acid (PFA) has prompted an investigation of the effect of PFA on animals with tumors where retroviruses are implicated. Ehrlich ascites tumors (Friend virus) in NMRI mice and YBA solid tumors (Moloney virus) in CBA mice have been used.
(§3) NMRI mice were inoculated intraperitoneally with 0.1 ml of a 1/10 dilution of ascitic fluid from a mouse with an Ehrlich ascites tumor. Nine mice were given intraperitoneally 100 mg/kg of PFA per day as a 2% solution at pH 7.2, and 9 mice were treated with 0.95% NaCl ip. CBA mice were inoculated with 7×10^6 cells subcutaneously in the flank. Fifteen CBA mice were given 0.5% PFA at pH 7.2 in the drinking water and fifteen water without addition.

[4] = test system: YBA solid tumors (Moloney virus); assay: Survival of CBA mice bearing YBA solid tumors; assay type: in vivo; conditions: 0.5% in the drinking water, pH 7.2; FIG. 3
Method: as §2, §3

Acute toxicity in mice = assay: Acute toxicity in mice; parameters: species or system male mice of NMRI strain; conditions: mouse, in vivo, ip, as sodium salt, male NMRI mice
Method: Phosphonoformic acid was tested for acute toxicity in mice. The compound (as its sodium salt) was given as solution i.p. in doses of 250, 500, 1000, 2000 and 4000 μmol/kg. Groups of 4 male mice of NMRI strain weighing 18.5-20.5 g were used for each dose.

T1 sequence (P0A8V2 whole entry): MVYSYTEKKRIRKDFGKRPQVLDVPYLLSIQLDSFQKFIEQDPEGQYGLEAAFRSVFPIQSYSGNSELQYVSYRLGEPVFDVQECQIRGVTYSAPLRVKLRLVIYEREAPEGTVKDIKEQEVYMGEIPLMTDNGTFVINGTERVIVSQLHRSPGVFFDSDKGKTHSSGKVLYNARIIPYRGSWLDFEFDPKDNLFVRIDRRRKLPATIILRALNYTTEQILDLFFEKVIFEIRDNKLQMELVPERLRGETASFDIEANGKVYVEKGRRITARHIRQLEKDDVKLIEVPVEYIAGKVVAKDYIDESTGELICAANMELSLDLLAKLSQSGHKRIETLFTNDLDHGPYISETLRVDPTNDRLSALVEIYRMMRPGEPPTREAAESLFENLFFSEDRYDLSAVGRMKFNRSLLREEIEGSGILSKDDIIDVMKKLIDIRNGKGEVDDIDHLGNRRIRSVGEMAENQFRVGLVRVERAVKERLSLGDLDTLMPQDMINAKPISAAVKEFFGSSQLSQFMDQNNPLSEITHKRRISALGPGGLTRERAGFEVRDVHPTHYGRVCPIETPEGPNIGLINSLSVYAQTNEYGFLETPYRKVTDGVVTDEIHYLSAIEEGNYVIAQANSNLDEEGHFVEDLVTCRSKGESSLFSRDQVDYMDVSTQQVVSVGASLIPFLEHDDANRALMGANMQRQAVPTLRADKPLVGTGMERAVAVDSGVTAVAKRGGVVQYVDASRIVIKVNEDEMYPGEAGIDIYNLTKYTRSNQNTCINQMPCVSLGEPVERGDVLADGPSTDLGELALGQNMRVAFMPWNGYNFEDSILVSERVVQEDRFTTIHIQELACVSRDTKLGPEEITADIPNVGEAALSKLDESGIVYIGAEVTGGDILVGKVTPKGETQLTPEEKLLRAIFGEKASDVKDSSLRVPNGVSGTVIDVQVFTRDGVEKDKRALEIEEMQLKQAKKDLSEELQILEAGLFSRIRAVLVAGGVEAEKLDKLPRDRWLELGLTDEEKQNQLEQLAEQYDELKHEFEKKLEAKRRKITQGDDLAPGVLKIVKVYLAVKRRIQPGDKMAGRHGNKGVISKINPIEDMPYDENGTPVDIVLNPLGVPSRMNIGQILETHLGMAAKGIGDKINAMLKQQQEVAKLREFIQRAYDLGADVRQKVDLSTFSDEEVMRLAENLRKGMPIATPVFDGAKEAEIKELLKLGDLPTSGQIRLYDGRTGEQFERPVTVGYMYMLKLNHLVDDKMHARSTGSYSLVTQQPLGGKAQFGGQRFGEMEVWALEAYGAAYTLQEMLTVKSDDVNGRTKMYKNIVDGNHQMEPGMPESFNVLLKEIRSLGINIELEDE
T1 sequence (P0A8T7 whole entry): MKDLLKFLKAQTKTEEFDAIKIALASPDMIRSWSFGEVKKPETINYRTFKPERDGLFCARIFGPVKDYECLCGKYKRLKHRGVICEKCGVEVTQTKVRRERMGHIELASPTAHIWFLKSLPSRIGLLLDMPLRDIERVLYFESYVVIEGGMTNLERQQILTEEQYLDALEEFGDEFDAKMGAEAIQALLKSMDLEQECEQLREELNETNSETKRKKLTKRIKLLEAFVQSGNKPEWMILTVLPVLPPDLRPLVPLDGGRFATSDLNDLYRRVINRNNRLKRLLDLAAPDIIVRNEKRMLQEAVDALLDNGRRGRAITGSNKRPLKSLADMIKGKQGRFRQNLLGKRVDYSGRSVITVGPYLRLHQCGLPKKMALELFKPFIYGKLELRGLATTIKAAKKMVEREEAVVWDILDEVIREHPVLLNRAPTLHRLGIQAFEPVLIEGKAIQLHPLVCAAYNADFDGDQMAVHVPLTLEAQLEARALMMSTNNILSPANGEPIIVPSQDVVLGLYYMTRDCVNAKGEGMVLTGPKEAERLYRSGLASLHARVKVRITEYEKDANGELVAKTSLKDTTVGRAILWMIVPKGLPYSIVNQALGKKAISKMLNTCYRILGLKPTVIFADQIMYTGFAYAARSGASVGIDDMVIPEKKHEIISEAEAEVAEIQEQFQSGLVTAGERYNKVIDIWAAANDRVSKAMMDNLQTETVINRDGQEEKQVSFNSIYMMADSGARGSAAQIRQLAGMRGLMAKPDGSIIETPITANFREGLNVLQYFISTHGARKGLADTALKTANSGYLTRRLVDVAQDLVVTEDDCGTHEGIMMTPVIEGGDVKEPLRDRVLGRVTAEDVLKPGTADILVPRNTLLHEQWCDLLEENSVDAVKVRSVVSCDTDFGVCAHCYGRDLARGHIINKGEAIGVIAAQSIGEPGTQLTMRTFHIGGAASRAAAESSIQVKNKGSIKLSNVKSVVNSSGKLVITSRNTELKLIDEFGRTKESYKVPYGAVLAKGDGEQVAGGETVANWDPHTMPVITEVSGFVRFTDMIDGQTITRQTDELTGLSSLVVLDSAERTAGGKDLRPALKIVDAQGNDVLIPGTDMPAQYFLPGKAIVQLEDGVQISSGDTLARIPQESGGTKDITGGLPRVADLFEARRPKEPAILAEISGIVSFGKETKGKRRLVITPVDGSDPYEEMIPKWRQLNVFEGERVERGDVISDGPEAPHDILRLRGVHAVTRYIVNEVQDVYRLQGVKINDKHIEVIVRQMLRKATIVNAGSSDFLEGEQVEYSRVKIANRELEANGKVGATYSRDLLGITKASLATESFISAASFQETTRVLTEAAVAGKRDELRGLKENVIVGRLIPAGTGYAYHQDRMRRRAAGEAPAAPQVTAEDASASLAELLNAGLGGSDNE
T1 sequence (P0A7Z4 whole entry, further chain): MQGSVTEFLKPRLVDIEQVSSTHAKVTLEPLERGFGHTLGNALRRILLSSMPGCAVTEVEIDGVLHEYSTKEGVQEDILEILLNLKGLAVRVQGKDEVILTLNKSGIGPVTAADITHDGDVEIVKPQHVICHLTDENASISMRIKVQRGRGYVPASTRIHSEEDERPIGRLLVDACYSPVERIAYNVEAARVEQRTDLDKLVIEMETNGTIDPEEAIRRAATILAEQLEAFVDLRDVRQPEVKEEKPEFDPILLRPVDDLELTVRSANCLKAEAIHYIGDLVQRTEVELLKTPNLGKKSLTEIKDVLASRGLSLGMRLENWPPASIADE
T1 sequence (P0A800 whole entry, further chain): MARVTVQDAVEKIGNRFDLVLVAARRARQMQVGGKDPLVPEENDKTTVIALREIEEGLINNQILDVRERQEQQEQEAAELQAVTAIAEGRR
Chain of Micrococcus luteus DNA dependent DNA polymerase (C5CBM1 entry or part of it): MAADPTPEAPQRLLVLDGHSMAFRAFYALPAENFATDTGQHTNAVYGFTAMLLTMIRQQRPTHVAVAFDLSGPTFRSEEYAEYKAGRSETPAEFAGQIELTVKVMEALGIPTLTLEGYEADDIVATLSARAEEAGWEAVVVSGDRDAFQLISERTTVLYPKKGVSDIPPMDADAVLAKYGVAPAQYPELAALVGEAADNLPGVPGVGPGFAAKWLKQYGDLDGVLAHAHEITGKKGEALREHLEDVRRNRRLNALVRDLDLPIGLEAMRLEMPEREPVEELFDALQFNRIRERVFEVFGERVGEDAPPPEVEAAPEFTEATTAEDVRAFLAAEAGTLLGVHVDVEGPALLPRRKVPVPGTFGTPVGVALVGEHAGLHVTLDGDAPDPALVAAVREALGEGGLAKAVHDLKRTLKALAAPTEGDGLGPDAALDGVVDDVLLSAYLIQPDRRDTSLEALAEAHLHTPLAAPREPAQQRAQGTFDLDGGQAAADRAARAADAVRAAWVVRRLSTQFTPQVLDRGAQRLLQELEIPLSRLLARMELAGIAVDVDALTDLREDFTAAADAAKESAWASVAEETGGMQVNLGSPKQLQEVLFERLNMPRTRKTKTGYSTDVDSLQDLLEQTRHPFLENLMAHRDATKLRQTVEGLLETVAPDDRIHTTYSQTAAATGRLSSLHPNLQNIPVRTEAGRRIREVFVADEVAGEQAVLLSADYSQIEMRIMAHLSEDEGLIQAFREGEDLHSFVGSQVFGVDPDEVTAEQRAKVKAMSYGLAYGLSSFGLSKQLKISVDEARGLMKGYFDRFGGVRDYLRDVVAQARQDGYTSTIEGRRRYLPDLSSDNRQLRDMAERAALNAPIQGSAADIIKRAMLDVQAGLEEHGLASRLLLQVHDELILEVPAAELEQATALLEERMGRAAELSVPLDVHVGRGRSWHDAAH

Compound: O=C(O)P(=O)(O)O [phosphonoformic acid]
- inhibition at 500 µM [1]: 3%
- inhibition at 500 µM [2]: 6%
- inhibition at 100 µM (influenza virus (WSN)): 10%
- inhibition at 250 µM (influenza virus (WSN)): 50%
- inhibition at 500 µM (influenza virus (WSN)): 95%
- inhibition at 1 µM (herpes simplex type 1; Human alphaherpesvirus 1, 1 μM): 0%
- inhibition at 15 µM (herpes simplex type 1; Human alphaherpesvirus 1, 15 μM): 50%
- inhibition at 100 µM (herpes simplex type 1; Human alphaherpesvirus 1, 100 μM): 90%
- Morphological changes Day 3 (visna virus; 100 μM): -
- Morphological changes Day 5 (visna virus; 100 μM): + (10% cell degeneration)
- Morphological changes Day 7 (visna virus; 100 μM): ++ (25% cell degeneration)
- Morphological changes Day 3 (visna virus; 500 μM): -
- Morphological changes Day 5 (visna virus; 500 μM): -
- Morphological changes Day 7 (visna virus; 500 μM): + (10% cell degeneration)
- IC50 (visna virus; Visna-maedi virus, 120 h, SCP cells, virus titre 5 days after infection, read-out: concentration giving 50 percent reduction of virus multiplication): 20 µM
- survival of mice inoculated with Ehrlich ascites cells [3]: increased survival
- survival of mice inoculated with YBA cells [4]: increased survival
- LD50 (Acute toxicity in mice): 2000 to 4000 µmol/kg

— patent publication US4771041A, “Method for combating virus infection” (priority 1976, dated 1988)
